In series [1] the test system is T-cells in PBMC of patients recovered from SARS-CoV-2 infection. Format: cell-based, human.
Series [2] relates to T-cells of donors never exposed to SARS-CoV-2. Format: cell-based, human. The conditions noted are these: IFN-γ ELISPOT, unexposed donors.
The subject of the next series is peptide-specific T-cells. The series is described as follows: Self-vaccination of a healthy volunteer with SARS-CoV-2-derived peptides, XS15 and Montanide. Format: in vivo, human. From the text: Development of antibody-dependent enhancement (ADE) antibodies has been identified as potential risk for infected patients after vaccination approaches; see Graham B S. Rapid COVID-19 vaccine development. Science. 2020. In contrast to other classical vaccines aiming to induce an antibody-response to prevent viral infections the CoVac-1 vaccine is designed to induce SARS-CoV-2 specific T-cells. […] Therefore, there is compared to other vaccine approaches only minimal risk of induction of ADE antibodies by the CoVac-1 vaccine.
A more current report of self-vaccination of the same individual includes the administration of SARS-CoV-2-derived peptides performed in March 2020. Here, the self-experimenting healthy volunteer used eight SARS-CoV-2-derived peptides: five predicted to bind to HLA class I molecules (CD8 peptides) and three predicted to bind to HLA-DR molecules (CD4 peptides, including two peptides from the CoVac-1 vaccine). […] About 3 weeks after a single vaccination, using a vaccine containing the mentioned synthetic peptides, Montanide and containing 50 μg XS15, strong vaccine-induced CD4^+ T-cell responses against all […] HLA-DR peptides and against the recall CMV epitope could be detected. No T-cell responses against the five predicted SARS-CoV-2 HLA class I peptides could be detected by ex vivo Interferon-γ ELISpot assay. […]

For series [3] the following is noted: cited from earlier work.
The conditions of series [4]: XS15 emulsified in Montanide ISA 51 VG.
Series [5] relates to peptide vaccine-specific T-cells. Format: in vivo, human. The conditions noted are these: after one injection, preliminary.

The source of these data is patent US20230322865A1 (priority 2020, published 2023).

Peptide text beside a SMILES is read from it. * marks the point of attachment. Propyl(2R-PamO,3-PamO) = CCCCCCCCCCCCCCCC(=O)OC[C@H](C*)OC(=O)CCCCCCCCCCCCCCC; Palmitoyl = CCCCCCCCCCCCCCCC(=O)*

In the case of “KDGIIWVATEGALNT (SARS-CoV-2) [SEQ ID NO: 1, SARS-CoV-2 nucleocapsid-derived HLA-DR peptide]”, in series [1], the “SARS cohort frequency [%]” value came out at 91% and the SARS cohort pos/tested is reported as 20/22. For the same compound, in series [2], the “PRE cohort frequency [%]” value worked out at 44% and the PRE cohort pos/tested is 8/18.
Turning to SKWYIRVGARKSAPL [SEQ ID NO: 10], in series [1], the “SARS cohort frequency [%]” value is on record as 68% and the SARS cohort pos/tested was 15/22. Moreover, in series [2], the “PRE cohort frequency [%]” value is recorded as 25% and the PRE cohort pos/tested is on record as 4/16.
As for `CC(C)C[C@H](NC(=O)[C@@H](NC(=O)[C@H](CO)NC(=O)[C@H](Cc1ccc(O)cc1)NC(=O)[C@H](CC(=O)O)NC(=O)[C@H](C)NC(=O)[C@@H](N)C(C)C)C(C)C)C(=O)N[C@@H](Cc1ccc(O)cc1)C(=O)N[C@@H](CC(N)=O)C(=O)N[C@@H](CO)C(=O)N[C@@H](C)C(=O)N[C@@H](CO)C(=O)N[C@@H](Cc1ccccc1)C(=O)N[C@@H](CO)C(=O)N[C@H](C(=O)O)[C@@H](C)O` [SEQ ID NO: 6], in the series on peptide-specific T-cells, the “antibody induction against vaccine peptide” value is listed as “no antibody induction was observed”.
With ITRFQTLLALHRSYL [SEQ ID NO: 7], in series [1], the “SARS cohort frequency [%]” value worked out at 55% and the SARS cohort pos/tested is listed as 12/22. Further, in series [2], the “PRE cohort frequency [%]” value was 5% and the PRE cohort pos/tested is recorded as 1/20.
As for “LLLLDRLNQLESKMS (SARS-CoV-2) [SEQ ID NO: 4, SARS-CoV-2 nucleocapsid-derived HLA-DR peptide]”, in series [1], the “SARS cohort frequency [%]” value was determined as 64% and the SARS cohort pos/tested is reported as 14/22. Besides, in series [2], the “PRE cohort frequency [%]” value was determined as 6% and the PRE cohort pos/tested is listed as 1/17.
With “FYVYSRVKNLNSSRV (SARS-CoV-2) [SEQ ID NO: 9, SARS-CoV-2 envelope protein-derived HLA-DR peptide]”, in series [1], the “SARS cohort frequency [%]” value worked out at 50% and the SARS cohort pos/tested was 11/22. In series [2], the “PRE cohort frequency [%]” value is given as 11% and the PRE cohort pos/tested is 2/19.
For the compound “ASWFTALTQHGKEDL (SARS-CoV-2) [SEQ ID NO: 3, SARS-CoV-2 nucleocapsid-derived HLA-DR peptide]”, in series [1], the “SARS cohort frequency [%]” value was 59% and the SARS cohort pos/tested is 13/22. Also, in series [2], the “PRE cohort frequency [%]” value is 6% and the PRE cohort pos/tested is recorded as 1/18.
`CCCCCCCCCCCCCCCC(=O)N[C@@H](CSC[C@@H](COC(=O)CCCCCCCCCCCCCCC)OC(=O)CCCCCCCCCCCCCCC)C(=O)NCC(=O)N[C@@H](CC(=O)O)C(=O)N1CCC[C@H]1C(=O)N[C@@H](CCCCN)C(=O)N[C@@H](Cc1c[nH]cn1)C(=O)N1CCC[C@H]1C(=O)N[C@@H](CCCCN)C(=O)N[C@@H](CO)C(=O)N[C@@H](Cc1ccccc1)C(=O)O` [XS15] (Palmitoyl-C(Propyl(2R-PamO,3-PamO))GDPKHPKSF-OH; C-terminus assumed): the “Granuloma volume at injection site (ultrasound)” value in series [3] (80 μg XS15, days 17 and 41) is recorded as “about 8 ml”. Moreover, the “Ex vivo T-cell responses in peripheral blood detectable” value in series [3] (single vaccination) is on record as “more than one year”. In series [4], the “Persistence of induced immune responses” value is “more than 1.5 years” and the “Persistence of vaccinated peptides in granuloma on vaccination site” value is “at least 7 weeks”. Besides, the “Induction of T-cell responses against vaccine peptides, % of healthy volunteer (HV) and patients” value in series [5] came to 100%.
In the case of “ASAFFGMSRIGMEVT (SARS-CoV-2) [SEQ ID NO: 5, SARS-CoV-2 nucleocapsid-derived HLA-DR peptide]”, in series [1], the “SARS cohort frequency [%]” value is 52% and the SARS cohort pos/tested is listed as 12/23. In series [2], the “PRE cohort frequency [%]” value is 6% and the PRE cohort pos/tested was 1/18.
Regarding “RWYFYYLGTGPEAGL (SARS-CoV-2) [SEQ ID NO: 2, SARS-CoV-2 nucleocapsid-derived HLA-DR peptide]”, in series [1], the “SARS cohort frequency [%]” value is 73% and the SARS cohort pos/tested is 16/22. For the same compound, in series [2], the “PRE cohort frequency [%]” value is listed as 6% and the PRE cohort pos/tested is listed as 1/18.
